Assay results reported in article PMC4467398, “Preclinical antitumor activity of ST7612AA1: a new oral thiol-based histone deacetylase (HDAC) inhibitor” (Oncotarget, 2014).

System: DOHH2 and TMD8 DLBCL cells
Test: Gene expression profiling (HumanHT-12 v4 BeadChip, limma), ST7612AA1 300 nM 8 hrs vs DMSO
Format: cell-based, human
Settings: 300 nM 8 hrs

## CC(=O)SCCCCC[C@H](NC(=O)[C@H]1CCC(=O)N1)C(=O)Nc1ccccc1 [ST7612AA1]
  AveExpr.ST7612 1999-08-31 (probe ILMN_1659953): 8.50E-01
  AveExpr.ST7612 (probe ILMN_1816244): 7.08E-01
  AveExpr.ST7612 (probe ILMN_1827736): 8.76E-01
  AveExpr.ST7612 (probe ILMN_1909886): 7.98E-01
  AveExpr.ST7612 ABCA7 (probe ILMN_1743205): 7.64E-01
  AveExpr.ST7612 ADARB1 (probe ILMN_1679797): 7.60E-01
  AveExpr.ST7612 ALDH2 (probe ILMN_1793859): 8.03E-01
  AveExpr.ST7612 ALOX5 (probe ILMN_1680996): 8.46E-01
  AveExpr.ST7612 AMOT (probe ILMN_1792409): 7.65E-01
  AveExpr.ST7612 APAF1 (probe ILMN_1659463): 8.78E-01
  AveExpr.ST7612 APLP1 (probe ILMN_1763834): 8.17E-01
  AveExpr.ST7612 ARL6IP1 (probe ILMN_1708416): 6.93E-01
  AveExpr.ST7612 ATG2A (probe ILMN_1756006): 8.92E-01
  AveExpr.ST7612 ATP6V0C (probe ILMN_1773849): 8.22E-01
  AveExpr.ST7612 ATP6V1G2 (probe ILMN_1654541): 8.47E-01
  AveExpr.ST7612 ATP7B (probe ILMN_1722056): 8.88E-01
  AveExpr.ST7612 AVPI1 (probe ILMN_1671731): 8.94E-01
  AveExpr.ST7612 AZI1 (probe ILMN_1746206): 7.59E-01
  AveExpr.ST7612 BIK (probe ILMN_1770505): 7.57E-01
  AveExpr.ST7612 BLVRB (probe ILMN_1797793): 8.74E-01
  AveExpr.ST7612 BNIP3L (probe ILMN_1718961): 8.34E-01
  AveExpr.ST7612 BPHL (probe ILMN_1657746): 8.91E-01
  AveExpr.ST7612 C3orf34 (probe ILMN_1665217): 6.96E-01
  AveExpr.ST7612 C4orf32 (probe ILMN_1700257): 8.83E-01
  AveExpr.ST7612 C12orf52 (probe ILMN_1667857): 6.98E-01
  AveExpr.ST7612 C13orf15 (probe ILMN_1658494): 7.74E-01
  AveExpr.ST7612 C14orf173 (probe ILMN_2393450): 7.70E-01
  AveExpr.ST7612 C14orf179 (probe ILMN_1756877): 7.81E-01
  AveExpr.ST7612 CA2 (probe ILMN_2199439): 7.93E-01
  AveExpr.ST7612 CAMLG (probe ILMN_1714599): 7.30E-01
  AveExpr.ST7612 CASC4 (probe ILMN_2325574): 6.85E-01
  AveExpr.ST7612 CBX7 (probe ILMN_1657361): 7.49E-01
  AveExpr.ST7612 CCDC24 (probe ILMN_1718771): 6.89E-01
  AveExpr.ST7612 CCDC92 (probe ILMN_1731107): 8.05E-01
  AveExpr.ST7612 CD74 (probe ILMN_1761464): 8.47E-01
  AveExpr.ST7612 CD74 (probe ILMN_2379644): 7.27E-01
  AveExpr.ST7612 CDC2L6 (probe ILMN_1676891): 6.96E-01
  AveExpr.ST7612 CDC42EP5 (probe ILMN_1774982): 8.75E-01
  AveExpr.ST7612 CDK2AP2 (probe ILMN_1690653): 8.01E-01
  AveExpr.ST7612 CECR1 (probe ILMN_1751851): 8.43E-01
  AveExpr.ST7612 CLCC1 (probe ILMN_1671933): 8.48E-01
  AveExpr.ST7612 CLIC4 (probe ILMN_2063586): 7.49E-01
  AveExpr.ST7612 CMTM8 (probe ILMN_1710124): 7.00E-01
  AveExpr.ST7612 COTL1 (probe ILMN_1788283): 6.87E-01
  AveExpr.ST7612 CRIP1 (probe ILMN_1656920): 8.56E-01
  AveExpr.ST7612 CRYM (probe ILMN_1779241): 8.32E-01
  AveExpr.ST7612 CSRP1 (probe ILMN_1811921): 7.01E-01
  AveExpr.ST7612 CSTB (probe ILMN_1761797): 8.06E-01
  AveExpr.ST7612 CTSB (probe ILMN_2359742): 8.56E-01
  AveExpr.ST7612 CXADR (probe ILMN_1796925): 8.18E-01
  AveExpr.ST7612 CXorf57 (probe ILMN_1703279): 8.25E-01
  AveExpr.ST7612 CYB5R1 (probe ILMN_1729237): 7.59E-01
  AveExpr.ST7612 CYB5R3 (probe ILMN_1740441): 7.06E-01
  AveExpr.ST7612 CYP2R1 (probe ILMN_2119774): 7.88E-01
  AveExpr.ST7612 DEF8 (probe ILMN_1767509): 8.37E-01
  AveExpr.ST7612 DGCR6L (probe ILMN_3245688): 7.47E-01
  AveExpr.ST7612 DNMT3B (probe ILMN_1794692): 8.14E-01
  AveExpr.ST7612 DSTN (probe ILMN_1706426): 7.52E-01
  AveExpr.ST7612 DYNC1H1 (probe ILMN_1780302): 6.97E-01
  AveExpr.ST7612 DYNLL2 (probe ILMN_1772796): 8.61E-01
  AveExpr.ST7612 DYRK3 (probe ILMN_2400322): 6.97E-01
  AveExpr.ST7612 DYRK3 (probe ILMN_2400326): 8.26E-01
  AveExpr.ST7612 ECHS1 (probe ILMN_1718132): 7.78E-01
  AveExpr.ST7612 EGR1 (probe ILMN_1762899): 8.42E-01
  AveExpr.ST7612 ELOF1 (probe ILMN_1723185): 7.14E-01
  AveExpr.ST7612 ENC1 (probe ILMN_1779147): 7.93E-01
  AveExpr.ST7612 ENO2 (probe ILMN_1765796): 7.11E-01
  AveExpr.ST7612 ERRFI1 (probe ILMN_1665510): 7.44E-01
  AveExpr.ST7612 ESAM (probe ILMN_1668092): 7.54E-01
  AveExpr.ST7612 F11R (probe ILMN_2342033): 8.81E-01
  AveExpr.ST7612 FAM65A (probe ILMN_1680037): 7.70E-01
  AveExpr.ST7612 FAM116B (probe ILMN_1659029): 7.74E-01
  AveExpr.ST7612 FAM120B (probe ILMN_1679641): 7.62E-01
  AveExpr.ST7612 FAM149B1 (probe ILMN_3245452): 7.21E-01
  AveExpr.ST7612 FAM167A (probe ILMN_3248511): 7.13E-01
  AveExpr.ST7612 FBXO18 (probe ILMN_1729430): 7.97E-01
  AveExpr.ST7612 FCGRT (probe ILMN_1705302): 6.92E-01
  AveExpr.ST7612 FGD2 (probe ILMN_2115005): 7.14E-01
  AveExpr.ST7612 FGF9 (probe ILMN_1762531): 7.84E-01
  AveExpr.ST7612 FHL1 (probe ILMN_1805842): 7.76E-01
  AveExpr.ST7612 FLJ22795 (probe ILMN_2150802): 8.56E-01
  AveExpr.ST7612 FOXC1 (probe ILMN_1738401): 8.63E-01
  AveExpr.ST7612 FOXO1 (probe ILMN_1738816): 8.61E-01
  AveExpr.ST7612 FOXO4 (probe ILMN_1712095): 6.93E-01
  AveExpr.ST7612 FSD1 (probe ILMN_1813490): 7.25E-01
  AveExpr.ST7612 FUCA1 (probe ILMN_1752728): 8.57E-01
  AveExpr.ST7612 G6PD (probe ILMN_1697559): 6.93E-01
  AveExpr.ST7612 GABARAPL2 (probe ILMN_1796458): 7.62E-01
  AveExpr.ST7612 GAMT (probe ILMN_1756469): 8.74E-01
  AveExpr.ST7612 GATM (probe ILMN_1729180): 7.75E-01
  AveExpr.ST7612 GCH1 (probe ILMN_1812759): 7.11E-01
  AveExpr.ST7612 GOLGB1 (probe ILMN_1747935): 7.13E-01
  AveExpr.ST7612 GPT2 (probe ILMN_1684158): 8.12E-01
  AveExpr.ST7612 GRN (probe ILMN_1724250): 8.24E-01
  AveExpr.ST7612 HABP4 (probe ILMN_2107991): 7.82E-01
  AveExpr.ST7612 HAGH (probe ILMN_1772731): 8.84E-01
  AveExpr.ST7612 HERC1 (probe ILMN_1786211): 7.40E-01
  AveExpr.ST7612 HERPUD1 (probe ILMN_2374159): 8.50E-01
  AveExpr.ST7612 HEY1 (probe ILMN_1788203): 8.91E-01
  AveExpr.ST7612 HEY2 (probe ILMN_1682034): 7.56E-01
  AveExpr.ST7612 HIST1H1C (probe ILMN_1757406): 8.24E-01
  AveExpr.ST7612 HIST2H2AA3 (probe ILMN_2144426): 8.03E-01
  AveExpr.ST7612 HLA-DPA1 (probe ILMN_1772218): 8.12E-01
  AveExpr.ST7612 HLA-DQA1 (probe ILMN_1808405): 8.25E-01
  AveExpr.ST7612 HLA-DRB4 (probe ILMN_1752592): 7.27E-01
  AveExpr.ST7612 HLA-E (probe ILMN_1765258): 8.07E-01
  AveExpr.ST7612 HLTF (probe ILMN_1673820): 7.48E-01
  AveExpr.ST7612 HOOK2 (probe ILMN_1682147): 7.36E-01
  AveExpr.ST7612 HSPA1B (probe ILMN_1660436): 7.16E-01
  AveExpr.ST7612 ID1 (probe ILMN_1664861): 7.75E-01
  AveExpr.ST7612 IFFO1 (probe ILMN_2348268): 8.07E-01
  AveExpr.ST7612 IGSF3 (probe ILMN_1704353): 8.50E-01
  AveExpr.ST7612 ITGB1 (probe ILMN_1714820): 7.06E-01
  AveExpr.ST7612 ITPKA (probe ILMN_1776516): 7.10E-01
  AveExpr.ST7612 JAK1 (probe ILMN_1793384): 7.91E-01
  AveExpr.ST7612 KLHL5 (probe ILMN_1706687): 8.05E-01
  AveExpr.ST7612 KLRAQ1 (probe ILMN_3271092): 7.11E-01
  AveExpr.ST7612 LCMT1 (probe ILMN_1688452): 7.21E-01
  AveExpr.ST7612 LCMT1 (probe ILMN_2336186): 7.52E-01
  AveExpr.ST7612 LMNA (probe ILMN_1737394): 7.98E-01
  AveExpr.ST7612 LOC151162 (probe ILMN_3238058): 7.72E-01
  AveExpr.ST7612 LOC253039 (probe ILMN_3236498): 8.10E-01
  AveExpr.ST7612 LOC283683 (probe ILMN_1659327): 8.30E-01
  AveExpr.ST7612 LOC388588 (probe ILMN_1749834): 7.07E-01
  AveExpr.ST7612 LOC654191 (probe ILMN_1762308): 7.84E-01
  AveExpr.ST7612 LOC727935 (probe ILMN_1691616): 7.14E-01
  AveExpr.ST7612 LOC728014 (probe ILMN_1711699): 8.58E-01
  AveExpr.ST7612 LOC729495 (probe ILMN_3297510): 7.45E-01
  AveExpr.ST7612 LOC730101 (probe ILMN_3305735): 7.41E-01
  AveExpr.ST7612 LOC730415 (probe ILMN_3228688): 6.95E-01
  AveExpr.ST7612 LOC731314 (probe ILMN_1785756): 8.31E-01
  AveExpr.ST7612 LOC100128163 (probe ILMN_3182893): 7.83E-01
  AveExpr.ST7612 LOC100131727 (probe ILMN_3292990): 7.73E-01
  AveExpr.ST7612 LOC100133583 (probe ILMN_3214389): 8.94E-01
  AveExpr.ST7612 LOC100133678 (probe ILMN_3249667): 8.11E-01
  AveExpr.ST7612 LOC100134361 (probe ILMN_3241081): 8.59E-01
  AveExpr.ST7612 LRCH4 (probe ILMN_2157075): 8.54E-01
  AveExpr.ST7612 LRRC1 (probe ILMN_1755383): 7.83E-01
  AveExpr.ST7612 LTA4H (probe ILMN_1690342): 7.50E-01
  AveExpr.ST7612 LYRM5 (probe ILMN_1744534): 7.90E-01
  AveExpr.ST7612 LYSMD4 (probe ILMN_2159859): 6.95E-01
  AveExpr.ST7612 MAP1LC3B (probe ILMN_1703244): 7.73E-01
  AveExpr.ST7612 MAP2K1 (probe ILMN_1694240): 7.15E-01
  AveExpr.ST7612 MAPRE2 (probe ILMN_1695276): 7.72E-01
  AveExpr.ST7612 MARCKSL1 (probe ILMN_1714433): 8.47E-01
  AveExpr.ST7612 MAST3 (probe ILMN_1738749): 7.21E-01
  AveExpr.ST7612 MNS1 (probe ILMN_2157240): 7.07E-01
  AveExpr.ST7612 MTE (probe ILMN_2136089): 8.56E-01
  AveExpr.ST7612 MYBL1 (probe ILMN_3241046): 7.69E-01
